pIC50: −log10 of the molar value. ≈ marks a conversion by molar mass, not a printed value.
How the values were obtained:
DNA gyrase [1] = target: T1, DNA gyrase (Escherichia coli, UniProt P0AES4+P0AES6); assay: Inhibition of Quinolone resistant gyrase Supercoiling Activity in Escherichia coli; type: protein-complex assay
DNA gyrase [2] = target: T1, DNA gyrase; assay: Inhibition of Wild Type DNA gyrase Supercoiling Activity in Escherichia coli; type: protein-complex assay
Staphylococcus aureus [3] = assay: Minimum inhibitory concentration against Staphylococcus aureus - methicillin resistant Ciprofloxacin sensitive strain MI300; type: functional
Streptococcus pneumoniae [4] = assay: Minimum inhibitory concentration against Streptococcus pneumoniae - penicillin sensitive, strain STP64; type: functional
Staphylococcus aureus [5] = assay: Minimum inhibitory concentration against Staphylococcus aureus - methicillin resistant Ciprofloxacin resistant, strain MI339; type: functional
Escherichia coli = assay: Minimum inhibitory concentration against Escherichia coli, strain ES142; type: functional
Pseudomonas aeruginosa = assay: Minimum inhibitory concentration against Pseudomonas aeruginosa, strain PS96; type: functional
Streptococcus pneumoniae [6] = assay: Minimum inhibitory concentration against Streptococcus pneumoniae - penicillin resistant, strain STP51; type: functional
Streptococcus pneumoniae [7] = assay: Minimum inhibitory concentration against Streptococcus pneumoniae (Penicillin resistant) strain STP51; type: functional
Staphylococcus aureus [8] = assay: Minimum inhibitory concentration against Staphylococcus aureus (Methicillin resistant Ciprofloxacin resistant) strain MI339; type: functional
Staphylococcus aureus [9] = assay: Minimum inhibitory concentration against Staphylococcus aureus (Methicillin resistant Ciprofloxacin sensitive) strain MI300; type: functional
Streptococcus pneumoniae [10] = assay: Minimum inhibitory concentration against Streptococcus pneumoniae (Penicillin sensitive) strain STP64; type: functional

| Structure (SMILES) | pIC50 (DNA gyrase [1]) | pIC50 (DNA gyrase [2]) | MIC (Staphylococcus aureus [3]) [µg/mL] | MIC (Streptococcus pneumoniae [4]) [µg/mL] | MIC (Staphylococcus aureus [5]) [µg/mL] | MIC (Escherichia coli) [µg/mL] | MIC (Pseudomonas aeruginosa) [µg/mL] | MIC (Streptococcus pneumoniae [6]) [µg/mL] | MIC (Streptococcus pneumoniae [7]) [µg/mL] | MIC (Staphylococcus aureus [8]) [µg/mL] | MIC (Staphylococcus aureus [9]) [µg/mL] | MIC (Streptococcus pneumoniae [10]) [µg/mL] |
| --- | --- | --- | --- | --- | --- | --- | --- | --- | --- | --- | --- | --- |
| CC[C@@H]1CCN(c2ccc3c(=O)c(C(=O)O)cn(C4CC4)c3c2Cl)C[C@H]1N | 5.09 | 5.39 | < 0.004 | < 0.004 | 0.31 (≈ 0.795 µM) | < 0.004 | 0.125 (≈ 0.321 µM) | – | – | – | – | – |
| N[C@H]1CCCN(c2nc3c(cc2F)c(=O)c(C(=O)O)cn3C2CC2)C1 | < 3.53 | 5.34 | 2 (≈ 5.77 µM) | 4 (≈ 11.5 µM) | > 4 | 0.125 (≈ 0.361 µM) | 1 (≈ 2.89 µM) | 4 (≈ 11.5 µM) | – | – | – | – |
| O=C(O)c1cn(C2CC2)c2c(Cl)c(N3CCNCC3)ccc2c1=O | – | – | 0.25 (≈ 0.719 µM) | 4 (≈ 11.5 µM) | 8 (≈ 23 µM) | – | 0.5 (≈ 1.44 µM) | – | – | – | – | – |
| N[C@H]1CCCN(c2ccc3c(=O)c(C(=O)O)cn(C4CC4)c3c2Cl)C1 | 4.45 | 5.05 | 0.016 (≈ 0.0442 µM) | 0.12 (≈ 0.332 µM) | 1 (≈ 2.76 µM) | 0.03 (≈ 0.0829 µM) | 0.5 (≈ 1.38 µM) | < 0.008 | – | – | – | – |
| CC[C@@H]1CCN(c2c(F)cc3c(=O)c(C(=O)O)cn(C4CC4)c3c2F)C[C@H]1N | 4.49 | 6.29 | 0.006 (≈ 0.0153 µM) | 0.023 (≈ 0.0588 µM) | 0.188 (≈ 0.48 µM) | 0.006 (≈ 0.0153 µM) | 0.75 (≈ 1.92 µM) | 0.012 (≈ 0.0307 µM) | – | – | – | – |
| COc1c(N2CCC[C@H](N)C2)c(F)cc2c(=O)c(C(=O)O)cn(C3CC3)c12 | 4.77 | 5.37 | 0.031 (≈ 0.0826 µM) | 0.125 (≈ 0.333 µM) | 0.5 (≈ 1.33 µM) | 0.031 (≈ 0.0826 µM) | 1 (≈ 2.66 µM) | 0.063 (≈ 0.168 µM) | – | – | – | – |
| COc1c(N2CC[C@@H]([C@@H](C)N)C2)c(F)cc2c(=O)c(C(=O)O)cn(C3CC3)c12 | – | – | 0.008 (≈ 0.0205 µM) | 0.008 (≈ 0.0205 µM) | 0.016 (≈ 0.0411 µM) | 0.008 (≈ 0.0205 µM) | 0.25 (≈ 0.642 µM) | 0.008 (≈ 0.0205 µM) | – | – | – | – |
| CC[C@@H]1CCN(c2cc3c(cc2F)c(=O)c(C(=O)O)cn3C2CC2)C[C@H]1N | – | – | 0.094 (≈ 0.252 µM) | 0.75 (≈ 2.01 µM) | > 3 | 0.012 (≈ 0.0321 µM) | 1.5 (≈ 4.02 µM) | 0.375 (≈ 1 µM) | – | – | – | – |
| N[C@H]1CCCN(c2c(F)cc3c(=O)c(C(=O)O)cn(C4CC4)c3c2F)C1 | – | – | – | – | – | 0.03 (≈ 0.0826 µM) | 0.5 (≈ 1.38 µM) | – | 0.13 (≈ 0.358 µM) | 4 (≈ 11 µM) | 0.13 (≈ 0.358 µM) | 0.06 (≈ 0.165 µM) |
| CC[C@@H]1CCN(c2c(F)cc3c(=O)c(C(=O)O)cn(C4CC4)c3c2OC)C[C@H]1N | 4.80 | 5.10 | 0.008 (≈ 0.0198 µM) | 0.031 (≈ 0.0768 µM) | 0.125 (≈ 0.31 µM) | 0.016 (≈ 0.0397 µM) | 1 (≈ 2.48 µM) | 0.008 (≈ 0.0198 µM) | – | – | – | – |
| CC[C@H]1CCN(c2ccc3c(=O)c(C(=O)O)cn(C4CC4)c3c2OC)C[C@H]1N | – | – | 0.25 (≈ 0.649 µM) | 1 (≈ 2.59 µM) | 4 (≈ 10.4 µM) | 0.125 (≈ 0.324 µM) | 4 (≈ 10.4 µM) | 0.5 (≈ 1.3 µM) | – | – | – | – |
| CC[C@@H]1CCN(c2nc3c(cc2F)c(=O)c(C(=O)O)cn3C2CC2)C[C@H]1N | < 3.56 | 4.17 | 0.25 (≈ 0.668 µM) | 4 (≈ 10.7 µM) | > 4 | 0.03 (≈ 0.0801 µM) | 4 (≈ 10.7 µM) | 2 (≈ 5.34 µM) | – | – | – | – |
| COc1c(N2CCC[C@H](N)C2)ccc2c(=O)c(C(=O)O)cn(C3CC3)c12 | 4.45 | 4.75 | < 0.06 | 0.03 (≈ 0.0839 µM) | 1 (≈ 2.8 µM) | 0.03 (≈ 0.0839 µM) | 0.5 (≈ 1.4 µM) | < 0.008 | – | – | – | – |
| CC[C@@H]1CCN(c2ccc3c(=O)c(C(=O)O)cn(C4CC4)c3c2OC)C[C@H]1N | 4.48 | 5.08 | < 0.004 | < 0.003 | 0.25 (≈ 0.649 µM) | 0.006 (≈ 0.0156 µM) | 1 (≈ 2.59 µM) | 0.008 (≈ 0.0208 µM) | – | – | – | – |
| O=C(O)c1cn(C2CC2)c2cc(N3CCNCC3)c(F)cc2c1=O [CIPROFLOXACIN] | – | – | 0.25 (≈ 0.754 µM) | 0.25 (≈ 0.754 µM) | – | – | 0.12 (≈ 0.362 µM) | – | – | – | – | – |
| NC1CCN(c2c(F)cc3c(=O)c(C(=O)O)cn(C4CC4)c3c2Cl)C1 (stereo not given) [CLINAFLOXACIN] | 5.56 | 6.26 | 0.03 (≈ 0.082 µM) | 0.03 (≈ 0.082 µM) | 0.5 (≈ 1.37 µM) | 0.015 (≈ 0.041 µM) | 0.06 (≈ 0.164 µM) | 0.15 (≈ 0.41 µM) | – | – | – | – |
| COc1c(N2CCNC(C)C2)c(F)cc2c(=O)c(C(=O)O)cn(C3CC3)c12 (stereo not given) [GATIFLOXACIN] | – | – | 0.06 (≈ 0.16 µM) | 0.12 (≈ 0.32 µM) | 4 (≈ 10.7 µM) | 0.015 (≈ 0.04 µM) | 0.12 (≈ 0.32 µM) | – | – | – | – | – |

Reference: ChEMBL document CHEMBL1145050, “Discovery of (3S)-amino-(4R)-ethylpiperidinyl quinolones as potent antibacterial agents with a broad spectrum of activity and activity against resistant pathogens” (J Med Chem, 2003)
